Data published in patent publication US7981919B2, “Tricyclic heteroaryl piperazines, pyrrolidines and azetidines as serotonin receptor modulators” (Athersys, Inc., priority 2004, dated 2011).
Like-named read-outs stand apart in the source and are kept apart here.

Target: T1, human 5HT2c receptor (VNV Isoform) (Homo sapiens, UniProt P28335, I156V/I160V, form not given)
T1 sequence (P28335 1-458 I156V/N158S/I160V): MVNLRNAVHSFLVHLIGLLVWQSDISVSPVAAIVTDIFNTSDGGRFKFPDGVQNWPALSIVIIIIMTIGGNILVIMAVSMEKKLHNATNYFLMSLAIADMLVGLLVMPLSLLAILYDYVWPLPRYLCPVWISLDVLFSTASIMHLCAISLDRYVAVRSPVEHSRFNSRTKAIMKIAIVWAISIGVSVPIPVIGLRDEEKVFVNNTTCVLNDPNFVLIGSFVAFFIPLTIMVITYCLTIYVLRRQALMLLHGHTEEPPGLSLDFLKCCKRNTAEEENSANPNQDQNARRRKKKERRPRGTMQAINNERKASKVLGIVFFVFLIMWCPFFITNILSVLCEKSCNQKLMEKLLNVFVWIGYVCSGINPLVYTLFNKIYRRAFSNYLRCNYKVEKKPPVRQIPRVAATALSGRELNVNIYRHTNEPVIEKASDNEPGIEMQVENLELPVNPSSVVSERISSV
Assay: Calcium mobilization (FLIPR) 5HT2c receptor agonist assay in HEK 293 EBNA cells
Assay type: cell-based
Description: The following procedure was utilized to evaluate representative compounds of the present invention as 5HT2c receptor agonists.
5HT was utilized as a positive control. Ligand-induced calcium release and consequent fluorescence was measured on a Fluorometric Imaging Plate Reader (FLIPR, Molecular Device, CA).
All data were analyzed by nonlinear least square curve fitting using Prism 4.0 software. Agonist stimulation of calcium-induced fluorescence in FLIPR was fitted to sigmoidal dose response using equation Y=Bottom+(Top−Bottom)/(1+10 ? ((Log EC50−X))), where X is the logarithm of concentration of compounds and Y is the fluorescent response.

[1] = HEK 293 EBNA cells expressing human 5HT2c receptor, ligand-induced calcium release, read-out: 5-HT2c EC50 (hVSV)

| Structure (SMILES) | EC50 [1] | EC50 (read-out: 5-HT2c EC50 (hVSV), HEK 293 EBNA cells expressing human 5HT2c receptor, ligand-induced calcium release) |
| --- | --- | --- |
| Cc1c(Cl)sc2c1C(C)C1CNCC21 (single isomer, unassigned) [26, Enantiomer 2] | < 100 nM |  |
| Cc1sc2c(c1Br)C(C)C1CNCC21 (single isomer, unassigned) [27, Enantiomer 1] | < 1000 nM |  |
| Cc1sc2c(c1Br)C(C)C1CNCC21 (single isomer, unassigned) [27, Enantiomer 2] | < 100 nM |  |
| Brc1cc2c(s1)CC1CNCCC21 (single isomer, unassigned) [28, Enantiomer 1] | < 10000 nM |  |
| Brc1cc2c(s1)CC1CCNCC21 (single isomer, unassigned) [29, Enantiomer 2] | < 10000 nM |  |
| Brc1cc2c(s1)C1CNCCC1C2 (single isomer, unassigned) [30, Enantiomer 2] |  | > 10000 nM |
| Cc1sc2c(c1Br)C1CNCCC1C2 (single isomer, unassigned) [33, Enantiomer 1] | < 1000 nM |  |
| Cc1sc2c(c1Br)C1CNCCC1C2 (single isomer, unassigned) [33, Enantiomer 2] | < 10000 nM |  |
| CC1c2sccc2C2CNCC12 (single isomer, unassigned) [34, Enantiomer 1] | < 10000 nM |  |
| CC1c2cc(Br)sc2C2CNCC12 (single isomer, unassigned) [36, Enantiomer 1] | < 1000 nM |  |
| CC1c2cc(Br)sc2C2CNCC12 (single isomer, unassigned) [36, Enantiomer 2] | < 10000 nM |  |
| Brc1csc2c1CC1CNCC21 (single isomer, unassigned) [37, Enantiomer 1] | < 1000 nM |  |
| Brc1cc2c(s1)C1CNCC1C2 (single isomer, unassigned) [38, Enantiomer 1] | < 100 nM |  |
| FC(F)(F)c1sc2c(c1Br)CC1CNCC21 (single isomer, unassigned) [39, Enantiomer 2] | < 100 nM |  |
| Cc1c(C(F)(F)F)sc2c1CC1CNCC21 (single isomer, unassigned) [40, Enantiomer 2] | < 100 nM |  |
| COc1c(C(F)(F)F)sc2c1CC1CNCC21 (single isomer, unassigned) [41, Enantiomer 2] | < 100 nM |  |
| COc1c(Cl)sc2c1CC1CNCC21 (single isomer, unassigned) [42, Enantiomer 2] | < 10000 nM |  |
| CC(C)(C)C(=O)c1sc2c(c1Br)CC1CNCC21 (single isomer, unassigned) [43, Enantiomer 2] | < 1000 nM |  |
| c1ccc2c3c(sc2c1)C1CNCC1C3 (single isomer, unassigned) [45, Enantiomer 2] | < 1000 nM |  |
| Cc1c(Br)sc2c1C1CNCC1CC2 (single isomer, unassigned) [46, Enantiomer 2] | < 1000 nM |  |
| CCOC(=O)c1c(N)sc2c1CC1CNCC21 (stereo not drawn) [Example 1, 5-Amino-1,2,3,3a,7,7a-hexahydro-4-thia-2-aza-cyclopenta[α]pentalene-6-carboxylic acid ethyl ester] | < 100 nM |  |
| CCOC(=O)c1c(Br)sc2c1CC1CNCC21 (stereo not drawn) [Example 2, 5-Bromo-1,2,3,3a,7,7a-hexahydro-4-thia-2-aza-cyclopenta[α]pentalene-6-carboxylic acid ethyl ester] | < 100 nM |  |

| Structure (SMILES) | EC50 [1] | EC50 (read-out: 5-HT2c EC50 (hVSV), HEK 293 EBNA cells expressing human 5HT2c receptor, ligand-induced calcium release) |
| --- | --- | --- |
| CCOC(=O)c1csc2c1CC1CNCC21 (stereo not drawn) [Example 3, 1,2,3,3a,7,7a-Hexahydro-4-thia-2-aza-cyclopenta[α]pentalene-6-carboxylic acid ethyl ester] | < 100 nM |  |
| CCOC(=O)c1c(Cl)sc2c1CC1CNCC21 (stereo not drawn) [Example 4, 5-Chloro-1,2,3,3a,7,7a-hexahydro-4-thia-2-aza-cyclopenta[α]pentalene-6-carboxylic acid ethyl ester] | < 100 nM |  |
| Nc1sc2c(c1C(=O)c1cccc(C(F)(F)F)c1)CC1CNCC21 (stereo not drawn) [Example 5, (5-Amino-1,2,3,3a,7,7a-hexahydro-4-thia-2-aza cyclopenta[α]-pentalen-6-yl)-(3-trifluoromethyl-phenyl)-methanone] | < 10000 nM |  |
| Cc1ccc(C(=O)c2c(N)sc3c2CC2CNCC32)cc1 (stereo not drawn) [Example 6, (5-Amino-1,2,3,3a,7,7a-hexahydro-4-thia-2-aza-cyclopenta[α]-pentalen-6-yl)-p-tolyl-methanone] | < 1000 nM |  |
| Nc1sc2c(c1C(=O)c1ccc(Cl)cc1)CC1CNCC21 (stereo not drawn) [Example 7, (5-Amino-1,2,3,3a,7,7a-hexahydro-4-thia-2-aza-cyclopenta[α]-pentalen-6-yl)-(4-chloro-phenyl)-methanone] | < 10000 nM |  |
| COC(=O)c1cc2c(s1)C1CNCC1C2 (stereo not drawn) [Example 8, 1,2,3,3a,7,7a-Hexahydro-4-thia-2-aza-cyclopenta[α]pentalene-5-carboxylic acid methyl ester] | < 10000 nM |  |
| c1cc2c(s1)C1CNCC1C2 (stereo not drawn) [Example 9, 1,2,3,3a,7,7a-Hexahydro-4-thia-2-aza-cyclopenta[α]pentalene] | > 10000 nM |  |
| N#Cc1c(Cl)sc2c1C1CNCC1C2 (stereo not drawn) [Example 10, 2-Chloro-3b,4,5,6,6a,7-hexahydro-1-thia-5-aza-cyclopenta[α]pentalene-3-carbonitrile] | < 10000 nM |  |
| N#Cc1c(Br)sc2c1C1CNCC1C2 (stereo not drawn) [Example 11, 2-Bromo-3b,4,5,6,6a,7-hexahydro-1-thia-5-aza-cyclopenta[α]pentalene-3-carbonitrile] | < 10000 nM |  |
| N#Cc1c(Cl)sc2c1CC1CNCC21 (stereo not drawn) [Example 12, 5-Chloro-1,2,3,3a,7,7a-hexahydro-4-thia-2-aza-cyclopenta[α]pentalene-6-carbonitrile] | < 100 nM |  |
| N#Cc1c(Br)sc2c1CC1CNCC21 (centres unmarked) [Example 13, 5-Bromo-1,2,3,3a,7,7a-hexahydro-4-thia-2-aza-cyclopenta[ ]pentalene-6-carbonitrile] | < 100 nM |  |
| N#Cc1csc2c1CC1CNCC21 (stereo not drawn) [Example 14, 1,2,3,3a,7,7a-Hexahydro-4-thia-2-aza-cyclopenta[α]pentalene-6-carbonitrile] | < 1000 nM |  |
| Cc1sc2c(c1Cl)CC1CNCC21 (stereo not drawn) [Example 15, 6-Chloro-5-methyl-1,2,3,3a,7,7a-hexahydro-4-thia-2-aza-cyclopenta[α]pentalene] | < 100 nM |  |
| Cc1c(Cl)sc2c1CC1CNCC21 (stereo not drawn) [Example 17, 5-Chloro-6-methyl-1,2,3,3a,7,7a-hexahydro-4-thia-2-aza-cyclopenta[α]pentalene] | < 100 nM |  |
| Brc1sc2c(c1Br)CC1CNCC21 (stereo not drawn) [Example 19, 5,6-Dibromo-1,2,3,3a,7,7a-hexahydro-4-thia-2-aza-cyclopenta[α]pentalene] | < 1000 nM |  |
| COc1csc2c1CC1CNCC21 (stereo not drawn) [Example 20, 6-Methoxy-1,2,3,3a,7,7a-hexahydro-4-thia-2-aza-cyclopenta[α]pentalene] | < 1000 nM |  |
| Brc1cc2c(s1)CC1CNCC21 (stereo not drawn) [Example 21, 2-Bromo-3b,4,5,6,6a,7-hexahydro-1-thia-5-aza-cyclopenta[α]pentalene] | < 100 nM |  |
| Brc1sc2c(c1Br)C1CNCC1C2 (stereo not drawn) [Example 22, 2,3-Dibromo-3b,4,5,6,6a,7-hexahydro-1-thia-5-aza-cyclopenta[α]pentalene] | < 100 nM |  |
| FC(F)(F)c1csc2c1C1CNCC1C2 (stereo not drawn) [Example 23, 3-Trifluoromethyl-3b,4,5,6,6a,7-hexahydro-1-thia-5-aza-cyclopenta[α]pentalene] | < 1000 nM |  |
| CC1c2sc(Cl)cc2C2CNCC12 (stereo not drawn) [Example 24, 2-Chloro-7-methyl-3b,4,5,6,6a,7-hexahydro-1-thia-5-aza-cyclopenta[α]pentalene] | < 1000 nM |  |
| CC1c2sc(I)cc2C2CNCC12 (stereo not drawn) [Example 25, 2-Iodo-7-methyl-3b,4,5,6,6a,7-hexahydro-1-thia-5-aza-cyclopenta[α]pentalene] | < 1000 nM |  |
| Brc1cc2c(s1)C1CCNCC1C2 (stereo not drawn) [Example 31, 2-Bromo-4,5,6,7,7a,8-hexahydro-3bH-3-thia-6-aza-cyclopenta[α]indene] | < 1000 nM |  |
